Consider nine compounds from US20230111914A1, “SYNTHETIC TRITERPENOIDS WITH NITROGEN-BASED SUBSTITUENTS AT C-17 AND METHODS OF USE THEREOF” (REATA PHARMACEUTICALS, INC., priority 2019, published 2023).

For test [1], the system named is AREc32 reporter cell line (luciferase reporter under eight copies of the rat GSTA2 ARE sequence). Description: AREc32 luciferase reporter activation. The format is cell-based, human. The following applies: for EC (2-fold): Homo sapiens, Arec32, concentration that increases the luminescence signal 2-fold above vehicle, 19 h treatment, read-out: AREc32 EC2X (Mean ± SD).

Test [2] deals with IFNγ-induced NO production in RAW 264.7 cells. Description: Nitric oxide suppression assay (IFNγ-induced NO production, Griess nitrite readout). The format is cell-based, mouse. As to conditions: for IC50: Mus musculus, RAW264.7, RAW 264.7 cells, 2 h pretreatment, 20 ng/mL interferon gamma 24 h, average of trials per footnote, read-out: NO IC50. For orientation: Nitrite, measured by Griess reagent, commonly stands in for NO production.

Values joined by “and” are separate entries in the source; they are usually repeats but may differ in a detail not shown here. Identical values can stand only once. Marks after values point to notes of the source that are not given here.

Usually IC50 stands for the midpoint of a concentration-inhibition curve. Take `CC1(C)CC[C@]2(CNC(=O)C(C)(F)F)CC[C@]3(C)[C@H](C(=O)C=C4[C@@]5(C)C=C(C#N)C(=O)C(C)(C)[C@@H]5CC[C@]43C)[C@@H]2C1` [Compound T62]: in test [1], the “AREc32 EC2X Relative to RTA 402 (Mean ± SD)” value was 0.3^e fold and the EC (2-fold) worked out at 0.0035 µM. In addition, in test [2], the “NO IC50 Rel. to RTA 402” value was 0.51 ± 0.18^d fold and the IC50 was 2.12 ± 0.85 nM.
Regarding `[2H]C([2H])([2H])C(=O)NC[C@]12CCC(C)(C)C[C@H]1[C@H]1C(=O)C=C3[C@@]4(C)C=C(C#N)C(=O)C(C)(C)[C@@H]4CC[C@@]3(C)[C@]1(C)CC2` [Compound T52], in test [1], the “AREc32 EC2X Relative to RTA 402 (Mean ± SD)” value is 0.3^e fold and the EC (2-fold) was 0.003 µM. In test [2], the “NO IC50 Rel. to RTA 402” value is on record as 0.28 ± 0.13^e fold and the IC50 worked out at 0.52 ± 0.24 nM.
Taken in the same sequence, the figures for `CC1(C)CC[C@]2(CN3CC(F)(F)C3)CC[C@]3(C)[C@H](C(=O)C=C4[C@@]5(C)C=C(C#N)C(=O)C(C)(C)[C@@H]5CC[C@]43C)[C@@H]2C1` [Compound T27] were 1.8^e fold, 0.0266 µM, 8.68 ± 2.12^e fold and 17.8 ± 1.79 nM.
Regarding `CC1(C)CC[C@]2(CN3CCOC3=O)CC[C@]3(C)[C@H](C(=O)C=C4[C@@]5(C)C=C(C#N)C(=O)C(C)(C)[C@@H]5CC[C@]43C)[C@@H]2C1` [Compound T13], in test [1], the “AREc32 EC2X Relative to RTA 402 (Mean ± SD)” value is reported as 0.5^e fold and the EC (2-fold) stood at 0.00512 µM. In test [2], the “NO IC50 Rel. to RTA 402” value is listed as 0.65 ± 0.21^e fold and the half-inhibitory concentration (IC50) was determined as 1.74 ± 0.55 nM.
Turning to `C=CC(=O)NC[C@]12CCC(C)(C)C[C@H]1[C@H]1C(=O)C=C3[C@@]4(C)C=C(C#N)C(=O)C(C)(C)[C@@H]4CC[C@@]3(C)[C@]1(C)CC2` [Compound T16], in test [1], the “AREc32 EC2X Relative to RTA 402 (Mean ± SD)” value is 0.2 ± 0.05^f fold and the EC (2-fold) came to 0.002 ± 0.00018 µM. In test [2], the “NO IC50 Rel. to RTA 402” value is 0.21 fold and 0.21 ± 0.05^d fold; the “times more active (NO IC50) than 63183 relative to RTA 402” value is reported as “more than 6 times”; the IC50 was determined as 0.37 nM.
Regarding `CC1(C)CC[C@]2(N3CCCC3=O)CC[C@]3(C)[C@H](C(=O)C=C4[C@@]5(C)C=C(C#N)C(=O)C(C)(C)[C@@H]5CC[C@]43C)[C@@H]2C1` [Compound T24], in test [1], the “AREc32 EC2X Relative to RTA 402 (Mean ± SD)” value was 3.8^e fold and the EC (2-fold) is 0.0379 µM. In addition, in test [2], the “NO IC50 Rel. to RTA 402” value is recorded as 2.17 ± 0.72^e fold and the IC50 worked out at 3.6 ± 0.08 nM.
`CCC(=O)NC[C@]12CCC(C)(C)C[C@H]1[C@H]1C(=O)C=C3[C@@]4(C)C=C(C#N)C(=O)C(C)(C)[C@@H]4CC[C@@]3(C)[C@]1(C)CC2` [Compound T53]: in test [1], the “AREc32 EC2X Relative to RTA 402 (Mean ± SD)” value is given as 0.2^e fold and the EC (2-fold) is 0.0024 µM. Further, in test [2], the “NO IC50 Rel. to RTA 402” value is 0.21 fold and 0.21 ± 0.05^e fold; the “times more active (NO IC50) than 63189 relative to RTA 402” value is reported as “more than 19 times”; the IC50 amounted to 0.38 nM.
As for `CC1(C)CC[C@]2(CN3CC(=O)C3)CC[C@]3(C)[C@H](C(=O)C=C4[C@@]5(C)C=C(C#N)C(=O)C(C)(C)[C@@H]5CC[C@]43C)[C@@H]2C1` [Compound T29], in test [1], the “AREc32 EC2X Relative to RTA 402 (Mean ± SD)” value is given as 1.2^e fold and the EC (2-fold) came out at 0.0133 µM. Besides, in test [2], the “NO IC50 Rel. to RTA 402” value is 1.49 ± 0.30^d fold and the IC50 stood at 6.09 ± 1.46 nM.
Taken in the same sequence, the figures for `Cc1cc(C)n(C[C@]23CCC(C)(C)C[C@H]2[C@H]2C(=O)C=C4[C@@]5(C)C=C(C#N)C(=O)C(C)(C)[C@@H]5CC[C@@]4(C)[C@]2(C)CC3)n1` [Compound T22] were 3.7^e fold, 0.0445 µM, 5.29 ± 1.29^d fold and 9.18 ± 1.72 nM.
